Assay results from the NIST ThermoML archive (doi:10.1016/j.fluid.2007.02.007).
Numbers after ± are expanded uncertainties.

Assays:
[1] = Crystal
[2] = Solid-liquid equilibrium temperature; conditions: Crystal

Normal melting temperature [1] [°C]	Solid-liquid equilibrium temperature ([2]; 20000 kPa) [K]	Solid-liquid equilibrium temperature ([2]; 40000 kPa) [K]	Solid-liquid equilibrium temperature ([2]; 60000 kPa) [K]	Solid-liquid equilibrium temperature ([2]; 80000 kPa) [K]	Solid-liquid equilibrium temperature ([2]; 90000 kPa) [K]	Solid-liquid equilibrium temperature ([2]; 70000 kPa) [K]	SMILES
16.71 ± 1.2	294.52 ± 1.2	299.35 ± 1.2	303.85 ± 1.2	308.09 ± 1.2	309.98 ± 1.2	–	CCCCCCCC(=O)O [octanoic acid]
54.4 ± 1.2	332.3 ± 1.2	337.25 ± 1.2	342.31 ± 1.2	346.55 ± 1.2	348.93 ± 1.2	344.68 ± 1.2	CCCCCCCCCCCCCC(=O)O [tetradecanoic acid]
43.03 ± 1.2	320.6 ± 1.2	325.17 ± 1.2	329.76 ± 1.2	334.1 ± 1.2	336.1 ± 1.2	331.86 ± 1.2	CCCCCCCCCCCC(=O)O [dodecanoic acid]
